System: rabbit skeletal myofibrils (fast skeletal myofibrils)
Assay: Activation of fast skeletal myofibrils (PUMA assay, AC1.4)
Format: biochemical
Conditions: calcium at pCa25, AC1.4 = concentration at which the compound increased the enzymatic activity
Outline: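 Detergent-washed rabbit psoas myofibrils (~90% fast fibers), calcium set to give 25% of maximal rate (pCa25). ATPase followed by pyruvate kinase/lactate dehydrogenase-coupled NADH oxidation, absorbance at 340 nm. PM12 buffer: 12 mM PIPES, 2 mM MgCl2, 1 mM DTT, pH 6.8.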

**Q.** How did the AC1.4 turn out when `CC[C@H](C)[C@H]1C(=O)Nc2ccc(F)cc2CN1C(=O)N1CC[C@H](O)C1` [Compound 347, (S)-3-((S)-sec-butyl)-7-fluoro-4-((S)-3-hydroxypyrrolidine-1-carbonyl)-1,3,4,5-tetrahydro-2H-benzo[e][1,4]diazepin-2-one] was run?
**A.** Its AC1.4 is 3.59 µM.

**Q.** For `CC[C@H](C)[C@H]1C(=O)Nc2ccc(F)cc2CN1C(=O)NC` [Compound 348, (S)-3-((S)-sec-butyl)-7-fluoro-N-methyl-2-oxo-1,2,3,5-tetrahydro-4H-benzo[e][1,4]diazepine-4-carboxamide], which AC1.4 is on record?
**A.** The AC1.4 was 0.72 µM.

**Q.** How did the AC1.4 turn out when `CC[C@H](C)[C@H]1C(=O)Nc2ccc(F)cc2CN1C(=O)N[C@H]1CCN(CCO)C1` [Compound 349, (S)-3-((S)-sec-butyl)-7-fluoro-N-((S)-1-(2-hydroxyethyl)pyrrolidin-3-yl)-2-oxo-1,2,3,5-tetrahydro-4H-benzo[e][1,4]diazepine-4-carboxamide] was run?
**A.** The AC1.4 was 1.57 µM.

**Q.** For `CC[C@H](C)[C@H]1C(=O)Nc2ccc(F)cc2CN1C(=O)N[C@H]1CCN(C)C1` [Compound 350, (S)-3-((S)-sec-butyl)-7-fluoro-N-((S)-1-methylpyrrolidin-3-yl)-2-oxo-1,2,3,5-tetrahydro-4H-benzo[e][1,4]diazepine-4-carboxamide], which AC1.4 is on record?
**A.** The AC1.4 was 1.11 µM.

**Q.** Which AC1.4 does the source give for `CC[C@H](C)[C@H]1C(=O)Nc2ccc(F)cc2CN1C(=O)NC1CCN(CCO)CC1` [Compound 351, (S)-3-((S)-sec-butyl)-7-fluoro-N-(1-(2-hydroxyethyl)piperidin-4-yl)-2-oxo-1,2,3,5-tetrahydro-4H-benzo[e][1,4]diazepine-4-carboxamide] here?
**A.** The AC1.4 was 1.17 µM.

**Q.** How did the AC1.4 turn out when `CC[C@H](C)[C@H]1C(=O)Nc2ccc(F)cc2CN1C(=O)N[C@H]1CC[C@H](O)CC1` [Compound 352, (S)-3-((S)-sec-butyl)-7-fluoro-N-((1r,4S)-4-hydroxycyclohexyl)-2-oxo-1,2,3,5-tetrahydro-4H-benzo[e][1,4]diazepine-4-carboxamide] was run?
**A.** Its AC1.4 is 0.73 µM.

**Q.** Which AC1.4 does the source give for `CC[C@H](C)[C@H]1C(=O)Nc2ccc(F)cc2CN1C(=O)N[C@H]1CC[C@H](O)C1` [Compound 353, (S)-3-((S)-sec-butyl)-7-fluoro-N-((1S,3S)-3-hydroxycyclopentyl)-2-oxo-1,2,3,5-tetrahydro-4H-benzo[e][1,4]diazepine-4-carboxamide] here?
**A.** Its AC1.4 is 1.76 µM.

**Q.** Which AC1.4 does the source give for `CC[C@H](C)[C@H]1C(=O)Nc2ccc(F)cc2CN1C(=O)N[C@H]1C[C@H](O)C1` [Compound 354, (S)-3-((S)-sec-butyl)-7-fluoro-N-((1r,3S)-3-hydroxycyclobutyl)-2-oxo-1,2,3,5-tetrahydro-4H-benzo[e][1,4]diazepine-4-carboxamide] here?
**A.** Its AC1.4 is 1.59 µM.

**Q.** `CC[C@H](C)[C@H]1C(=O)Nc2ccc(F)cc2CN1C(=O)N[C@H]1C[C@@H](O)C1` [Compound 355, (S)-3-((S)-sec-butyl)-7-fluoro-N-((1s,3R)-3-hydroxycyclobutyl)-2-oxo-1,2,3,5-tetrahydro-4H-benzo[e][1,4]diazepine-4-carboxamide] was tested. Which AC1.4 did it give?
**A.** The AC1.4 was 1.49 µM.

**Q.** With `CC[C@H](C)[C@H]1C(=O)Nc2cc(F)ccc2CN1C(=O)NC1CCN(CCO)CC1` [Compound 356, (S)-3-((S)-sec-butyl)-8-fluoro-N-(1-(2-hydroxyethyl)piperidin-4-yl)-2-oxo-1,2,3,5-tetrahydro-4H-benzo[e][1,4]diazepine-4-carboxamide] as the compound, how does the AC1.4 read?
**A.** The AC1.4 was 0.24 µM.

**Q.** For `CC[C@H](C)[C@H]1C(=O)Nc2cc(F)ccc2CN1C(=O)N[C@H]1CCN(C)C1` [Compound 358, (S)-3-((S)-sec-butyl)-8-fluoro-N-((S)-1-methylpyrrolidin-3-yl)-2-oxo-1,2,3,5-tetrahydro-4H-benzo[e][1,4]diazepine-4-carboxamide], which AC1.4 is on record?
**A.** The AC1.4 was 0.40 µM.

**Q.** `CC[C@H](C)[C@H]1C(=O)Nc2cc(F)ccc2CN1C(=O)N1CC[C@H](O)C1` [Compound 359, (S)-3-((S)-sec-butyl)-8-fluoro-4-((S)-3-hydroxypyrrolidine-1-carbonyl)-1,3,4,5-tetrahydro-2H-benzo[e][1,4]diazepin-2-one] was tested. Which AC1.4 did it give?
**A.** The AC1.4 was 0.77 µM.

**Q.** Which AC1.4 does the source give for `CC[C@H](C)[C@H]1C(=O)Nc2cc(F)ccc2CN1C(=O)NC1CCN(C2COC2)CC1` [Compound 360, (S)-3-((S)-sec-butyl)-8-fluoro-N-(1-(oxetan-3-yl)piperidin-4-yl)-2-oxo-1,2,3,5-tetrahydro-4H-benzo[e][1,4]diazepine-4-carboxamide] here?
**A.** Its AC1.4 is 0.37 µM.

**Q.** How did the AC1.4 turn out when `CC[C@H](C)[C@H]1C(=O)Nc2cncc(F)c2CN1C(C)=O` [Compound 361, (S)-4-acetyl-3-((S)-sec-butyl)-6-fluoro-1,3,4,5-tetrahydro-2H-pyrido[3,4-e][1,4]diazepin-2-one] was run?
**A.** Its AC1.4 is 1.62 µM.

**Q.** Which AC1.4 does the source give for `CC[C@H](C)[C@H]1C(=O)Nc2cncc(F)c2CN1C(=O)CO` [Compound 362, (S)-3-((S)-sec-butyl)-6-fluoro-4-(2-hydroxyacetyl)-1,3,4,5-tetrahydro-2H-pyrido[3,4-e][1,4]diazepin-2-one] here?
**A.** The AC1.4 was 1.68 µM.

**Q.** `CC[C@H](C)[C@H]1C(=O)Nc2cncc(F)c2CN1C(=O)COC` [Compound 363, (S)-3-((S)-sec-butyl)-6-fluoro-4-(2-methoxyacetyl)-1,3,4,5-tetrahydro-2H-pyrido[3,4-e][1,4]diazepin-2-one] was tested. Which AC1.4 did it give?
**A.** Its AC1.4 is 2.60 µM.

**Q.** With `CC[C@H](C)[C@H]1C(=O)Nc2cncc(F)c2CN1C(=O)OC` [Compound 364, methyl (S)-3-((S)-sec-butyl)-6-fluoro-2-oxo-1,2,3,5-tetrahydro-4H-pyrido[3,4-e][1,4]diazepine-4-carboxylate] as the compound, how does the AC1.4 read?
**A.** The AC1.4 was 3.31 µM.

**Q.** With `CC[C@H](C)[C@H]1C(=O)Nc2cncc(F)c2CN1/C(N)=N/C#N` [Compound 365, (S,E)-3-((S)-sec-butyl)-N′-cyano-6-fluoro-2-oxo-1,2,3,5-tetrahydro-4H-pyrido[3,4-e][1,4]diazepine-4-carboximidamide] as the compound, how does the AC1.4 read?
**A.** Its AC1.4 is 0.19 µM.

**Q.** Which AC1.4 does the source give for `CC[C@H](C)[C@H]1C(=O)Nc2cncc(F)c2CN1c1c(N)c(=O)c1=O` [Compound 366, 3-amino-4-((S)-3-((S)-sec-butyl)-6-fluoro-2-oxo-1,2,3,5-tetrahydro-4H-pyrido[3,4-e][1,4]diazepin-4-yl)cyclobut-3-ene-1,2-dione] here?
**A.** Its AC1.4 is 0.21 µM.

**Q.** For `CC[C@H](C)[C@H]1C(=O)Nc2cncc(F)c2CN1C(=O)NC` [Compound 367, (S)-3-((S)-sec-butyl)-6-fluoro-N-methyl-2-oxo-1,2,3,5-tetrahydro-4H-pyrido[3,4-e][1,4]diazepine-4-carboxamide], which AC1.4 is on record?
**A.** The AC1.4 was 1.05 µM.

**Q.** `CC[C@H](C)[C@H]1C(=O)Nc2cncc(F)c2CN1C(=O)Nc1ccn(C)n1` [Compound 368, (S)-3-((S)-sec-butyl)-6-fluoro-N-(1-methyl-1H-pyrazol-3-yl)-2-oxo-1,2,3,5-tetrahydro-4H-pyrido[3,4-e][1,4]diazepine-4-carboxamide] was tested. Which AC1.4 did it give?
**A.** Its AC1.4 is 0.41 µM.

**Q.** How did the AC1.4 turn out when `CC[C@H](C)[C@H]1C(=O)Nc2cncc(F)c2CN1C(=O)Nc1cc[nH]n1` [Compound 369] was run?
**A.** Its AC1.4 is 0.24 µM.

**Q.** Which AC1.4 does the source give for `CC[C@H](C)[C@H]1C(=O)Nc2cncc(F)c2CN1C(=O)N1CC(O)C1` [Compound 370, (S)-3-((S)-sec-butyl)-6-fluoro-4-(3-hydroxyazetidine-1-carbonyl)-1,3,4,5-tetrahydro-2H-pyrido[3,4-e][1,4]diazepin-2-one] here?
**A.** Its AC1.4 is 0.88 µM.

**Q.** `CC[C@H](C)[C@H]1C(=O)Nc2cncc(F)c2CN1C(=O)COCc1ccccc1` [Compound 371, (S)-4-(2-(benzyloxy)acetyl)-3-((S)-sec-butyl)-6-fluoro-1,3,4,5-tetrahydro-2H-pyrido[3,4-e][1,4]diazepin-2-one] was tested. Which AC1.4 did it give?
**A.** The AC1.4 was 0.50 µM.

**Q.** For `CC[C@H](C)[C@H]1C(=O)Nc2ccccc2CN1c1c(N2CCOCC2)c(=O)c1=O` [Compound 372, 3-((S)-3-((S)-sec-butyl)-2-oxo-1,2,3,5-tetrahydro-4H-benzo[e][1,4]diazepin-4-yl)-4-morpholinocyclobut-3-ene-1,2-dione], which AC1.4 is on record?
**A.** The AC1.4 was 0.18 µM.

**Q.** `CC[C@H](C)[C@H]1C(=O)Nc2cnccc2CN1C(=O)c1cnn(C)c1` [Compound 373, (S)-3-((S)-sec-butyl)-4-(1-methyl-1H-pyrazole-4-carbonyl)-1,3,4,5-tetrahydro-2H-pyrido[3,4-e][1,4]diazepin-2-one] was tested. Which AC1.4 did it give?
**A.** The AC1.4 was 0.66 µM.

**Q.** For `CC[C@H](C)[C@H]1C(=O)Nc2cnccc2CN1c1c(NCCO)c(=O)c1=O` [Compound 374, 3-((S)-3-((S)-sec-butyl)-2-oxo-1,2,3,5-tetrahydro-4H-pyrido[3,4-e][1,4]diazepin-4-yl)-4-((2-hydroxyethyl)amino)cyclobut-3-ene-1,2-dione], which AC1.4 is on record?
**A.** The AC1.4 was 0.42 µM.

**Q.** `CC[C@H](C)[C@H]1C(=O)Nc2cnccc2CN1c1c(N2CC(O)C2)c(=O)c1=O` [Compound 375, 3-((S)-3-((S)-sec-butyl)-2-oxo-1,2,3,5-tetrahydro-4H-pyrido[3,4-e][1,4]diazepin-4-yl)-4-(3-hydroxyazetidin-1-yl)cyclobut-3-ene-1,2-dione] was tested. Which AC1.4 did it give?
**A.** Its AC1.4 is 0.26 µM.

**Q.** How did the AC1.4 turn out when `CC[C@H](C)[C@H]1C(=O)Nc2cnccc2CN1c1c(NC)c(=O)c1=O` [Compound 376, 3-((S)-3-((S)-sec-butyl)-2-oxo-1,2,3,5-tetrahydro-4H-pyrido[3,4-e][1,4]diazepin-4-yl)-4-(methylamino)cyclobut-3-ene-1,2-dione] was run?
**A.** Its AC1.4 is 0.18 µM.

**Q.** `CC[C@H](C)[C@H]1C(=O)Nc2cnccc2CN1c1c(N(C)C)c(=O)c1=O` [Compound 377, 3-((S)-3-((S)-sec-butyl)-2-oxo-1,2,3,5-tetrahydro-4H-pyrido[3,4-e][1,4]diazepin-4-yl)-4-(dimethylamino)cyclobut-3-ene-1,2-dione] was tested. Which AC1.4 did it give?
**A.** Its AC1.4 is 0.29 µM.

**Q.** With `CC[C@H](C)[C@H]1C(=O)Nc2cnccc2CN1c1c(N)c(=O)c1=O` [Compound 378, 3-amino-4-((S)-3-((S)-sec-butyl)-2-oxo-1,2,3,5-tetrahydro-4H-pyrido[3,4-e][1,4]diazepin-4-yl)cyclobut-3-ene-1,2-dione] as the compound, how does the AC1.4 read?
**A.** Its AC1.4 is 0.15 µM.

**Q.** With `CC[C@H](C)[C@H]1C(=O)Nc2cnccc2CN1C(=O)N1CC(O)C1` [Compound 379, (S)-3-((S)-sec-butyl)-4-(3-hydroxyazetidine-1-carbonyl)-1,3,4,5-tetrahydro-2H-pyrido[3,4-e][1,4]diazepin-2-one] as the compound, how does the AC1.4 read?
**A.** The AC1.4 was 0.92 µM.

— patent US12441691B2 (Cytokinetics, Inc., priority 2020, dated 2025)
